According to patent US6737383B1, “Herbicidal oxadiazolidines” (priority 1999, dated 2004):

Columns and labels:
corn = assay: Test B pre/postemergence corn; format: in vivo, Zea mays
Method in brief: (§1)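 Herbicidal effect was estimated by eye on a ten-point control scale after plants spent twelve to sixteen days in a greenhouse following soil or foliar treatment. Foliar sprays targeted plants at one to four leaves; all doses were formulated in a non-phytotoxic solvent with surfactant.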

wheat = assay: Test B pre/postemergence wheat; format: in vivo, Triticum aestivum
Method in brief: as §1

velvetleaf = assay: Test B pre/postemergence velvetleaf; format: in vivo, Abutilon theophrasti
Method in brief: as §1

blackgrass = assay: Test B pre/postemergence blackgrass; format: in vivo, Alopecurus myosuroides
Method in brief: as §1

smallflower flatsedge = assay: Test B flood test smallflower flatsedge; format: in vivo, Cyperus difformis
Method in brief: (§2)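 Plants were grown to the 2-leaf stage before treatment with test chemical, then held in a greenhouse for twelve to sixteen days. Injury was visually rated against untreated controls on a 0–10 scale, where 0 is no effect and 10 is complete control.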

cocklebur = assay: Test B pre/postemergence cocklebur; format: in vivo, Xanthium strumarium
Method in brief: as §1

soybean = assay: Test B pre/postemergence soybean; format: in vivo, Glycine max
Method in brief: as §1

giant foxtail = assay: Test B pre/postemergence giant foxtail; format: in vivo, Setaria faberii
Method in brief: as §1

pigweed = assay: Test B pre/postemergence pigweed; format: in vivo, Amaranthus retroflexus
Method in brief: as §1

bedstraw = assay: Test B pre/postemergence bedstraw; format: in vivo, Galium aparine
Method in brief: as §1

duck salad = assay: Test B flood test duck salad; format: in vivo, Heteranthera limosa
Method in brief: as §2

bamyardgrass = assay: Test B flood test barnyardgrass; format: in vivo, Echinochloa crus-galli
Method in brief: as §2

sugar beet = assay: Test B pre/postemergence sugar beet; format: in vivo, Beta vulgaris
Method in brief: as §1

crabgrass = assay: Test B pre/postemergence crabgrass; format: in vivo, Digitaria sanguinalis
Method in brief: as §1

morningglory = assay: Test B pre/postemergence morningglory; format: in vivo, Ipomoea hederacea
Method in brief: as §1

wild oat = assay: Test B pre/postemergence wild oat; format: in vivo, Avena fatua
Method in brief: as §1

purple nutsedge = assay: Test B pre/postemergence purple nutsedge; format: in vivo, Cyperus rotundus
Method in brief: as §1

rice = assay: Test B flood test rice; format: in vivo, Oryza sativa
Method in brief: as §2

surinam grass = assay: Test B pre/postemergence surinam grass; format: in vivo, Brachiaria decumbens
Method in brief: as §1

rape = assay: Test B pre/postemergence rape; format: in vivo, Brassica napus
Method in brief: as §1

[1] = Postemergence, Rate 125 g/ha, scale 0 to 10, 0 is no effect, 10 is complete control
[2] = Postemergence, Rate 250 g/ha, scale 0 to 10, 0 is no effect, 10 is complete control
[3] = Postemergence, Rate 500 g/ha, scale of 0 to 10 where 0 is no effect and 10 is complete control
[4] = Preemergence, Rate 62 g/ha, scale 0 to 10 (0 no effect, 10 complete control)
[5] = Preemergence, Rate 125 g/ha, scale of 0 to 10 where 0 is no effect and 10 is complete control
[6] = Preemergence, Rate 250 g/ha, scale 0 to 10, 0 is no effect, 10 is complete control
[7] = Preemergence, Rate 500 g/ha, scale 0 to 10, 0 is no effect, 10 is complete control
[8] = Rate 62 g/ha, Postemergence, scale of 0 to 10 where 0 is no effect and 10 is complete control
[9] = Preemergence, Rate 250 g/ha, scale of 0 to 10 where 0 is no effect and 10 is complete control
[10] = Rate 62 g/ha, flood test species, Pre-emergence, visual evaluation after twelve to sixteen days
[11] = Rate 125 g/ha, under heading Pre-emergence, flood test species, visual evaluation after twelve to sixteen days
[12] = Rate 500 g/ha, Pre-emergence, flood test species, scale 0 to 10 (0 no effect, 10 complete control)
[13] = Preemergence, Rate 500 g/ha, scale of 0 to 10 where 0 is no effect and 10 is complete control
[14] = Preemergence, Rate 62 g/ha, scale of 0 to 10 where 0 is no effect and 10 is complete control
[15] = Preemergence, Rate 250 g/ha, scale 0 (no effect) to 10 (complete control)
[16] = Pre-emergence, Rate 62 g/ha, scale 0 to 10, 0 is no effect, 10 is complete control
[17] = Rate 125 g/ha, Pre-emergence section (flood test species), scale 0 to 10, 0 no effect, 10 complete control
[18] = Rate 250 g/ha, Pre-emergence (flood test species), scale 0 to 10, 0 is no effect, 10 is complete control
[19] = Rate 500 g/ha, Pre-emergence section of Table B, 0 to 10 scale (0 no effect, 10 complete control)

CC(C)Cn1c(=O)on(C(=O)N(c2ccccc2)C(C)C)c1=O [Compound 410]
0: Plant response rating, Corn (corn; [1]) | Plant response rating, Corn (corn; [2]) | Plant response rating, Corn (corn; [4]) | Plant response rating, Corn (corn; [5]) | Corn plant response rating (corn; [8]) | Plant response rating, Wheat (wheat; [4]) | Plant response rating, Velvetleaf (velvetleaf; [2]) | Velvetleaf plant response rating (velvetleaf; [3]) | Plant response rating, Cocklebur (cocklebur; [1]) | Plant response rating, Cocklebur (cocklebur; [2]) | Plant response rating, Cocklebur (cocklebur; [4]) | Plant response rating, Cocklebur (cocklebur; [5]) | Cocklebur plant response rating (cocklebur; [6]) | Cocklebur plant response rating (cocklebur; [7]) | Cocklebur plant response rating (cocklebur; [8]) | Plant response rating, Soybean (soybean; [4]) | Plant response rating, Soybean (soybean; [5]) | Soybean plant response rating (soybean; [6]) | Plant response rating, Redroot pigweed (pigweed; [2]) | Plant response rating, Redroot pigweed (pigweed; [4]) | Plant response rating, Redroot pigweed (pigweed; [5]) | Plant response rating, Ducksalad (0 to 10 scale, 0 is no effect, 10 is complete control) (duck salad; [10]) | Ducksalad plant response rating (0 to 10 scale, 0 is no effect, 10 is complete control) (duck salad; [11]) | Plant response rating, Barnyardgrass (0 to 10 scale, 0 is no effect, 10 is complete control) (bamyardgrass; [10]) | Plant response rating, Sugarbeets (sugar beet; [4]) | Plant response rating, Sugarbeets (sugar beet; [5]) | Sugarbeets plant response rating (sugar beet; [6]) | Sugarbeets plant response rating (sugar beet; [7]) | Plant response rating, Morningglory (morningglory; [4]) | Plant response rating, Morningglory (morningglory; [5]) | Morningglory plant response rating (morningglory; [6]) | Morningglory plant response rating (morningglory; [7]) | Plant response rating, Nutsedge (purple nutsedge; [2]) | Nutsedge plant response rating (purple nutsedge; [3]) | Plant response rating, Nutsedge (purple nutsedge; [4]) | Plant response rating, Nutsedge (purple nutsedge; [5]) | Nutsedge plant response rating (purple nutsedge; [6]) | Plant response rating, Rice (0 to 10 scale, 0 is no effect, 10 is complete control) (rice; [10]) | Rice plant response rating (0 to 10 scale, 0 is no effect, 10 is complete control) (rice; [11]) | Plant response rating, B. signalgrass (surinam grass; [1]) | B. signalgrass plant response rating (surinam grass; [8]) | Plant response rating, Rape (rape; [4]) | Plant response rating, Rape (rape; [5])
9: Corn plant response rating (corn; [7]) | Plant response rating, Blackgrass (blackgrass; [2]) | Blackgrass plant response rating (blackgrass; [3]) | S. Flatsedge plant response rating (smallflower flatsedge; [12]) | Plant response rating, Giant foxtail (giant foxtail; [1]) | Plant response rating, Giant foxtail (giant foxtail; [2]) | Giant foxtail plant response rating (giant foxtail; [3]) | Plant response rating, Giant foxtail (giant foxtail; [4]) | Plant response rating, Giant foxtail (giant foxtail; [5]) | Barnyardgrass plant response rating (bamyardgrass; [12]) | Plant response rating, Crabgrass (crabgrass; [5])
7: Wheat plant response rating (wheat; [6]) | Bedstraw plant response rating (bedstraw; [3]) | Plant response rating, Sugarbeets (sugar beet; [2]) | Plant response rating, Crabgrass (crabgrass; [4]) | Wild oats plant response rating (wild oat; [6]) | B. signalgrass plant response rating (surinam grass; [3]) | B. signalgrass plant response rating (surinam grass; [9]) | Plant response rating, Rape (rape; [2]) | Rape plant response rating (rape; [3])
4: Corn plant response rating (corn; [6]) | Wheat plant response rating (wheat; [3]) | Plant response rating, Velvetleaf (velvetleaf; [5]) | Barnyardgrass plant response rating (0 to 10 scale, 0 is no effect, 10 is complete control) (bamyardgrass; [11]) | Plant response rating, Crabgrass (crabgrass; [1]) | Crabgrass plant response rating (crabgrass; [8])
3: Corn plant response rating (corn; [3]) | Plant response rating, Wheat (wheat; [5]) | Plant response rating, Velvetleaf (velvetleaf; [4]) | Plant response rating, Blackgrass (blackgrass; [4]) | Plant response rating, S. Flatsedge (0 to 10 scale, 0 is no effect, 10 is complete control) (smallflower flatsedge; [10]) | S. Flatsedge plant response rating (0 to 10 scale, 0 is no effect, 10 is complete control) (smallflower flatsedge; [11]) | Soybean plant response rating (soybean; [7]) | Plant response rating, Wild oats (wild oat; [4])
10: Blackgrass plant response rating (blackgrass; [7]) | Giant foxtail plant response rating (giant foxtail; [6]) | Giant foxtail plant response rating (giant foxtail; [7]) | Crabgrass plant response rating (crabgrass; [3]) | Crabgrass plant response rating (crabgrass; [6]) | Crabgrass plant response rating (crabgrass; [7]) | Wild oats plant response rating (wild oat; [7]) | B. signalgrass plant response rating (surinam grass; [13])
2: Redroot pigweed plant response rating (pigweed; [3]) | Redroot pigweed plant response rating (pigweed; [6]) | Ducksalad plant response rating (duck salad; [12]) | Rape plant response rating (rape; [6])
6: Velvetleaf plant response rating (velvetleaf; [6]) | Soybean plant response rating (soybean; [3]) | Plant response rating, Wild oats (wild oat; [5])
8: Wheat plant response rating (wheat; [7]) | Velvetleaf plant response rating (velvetleaf; [7]) | Plant response rating, Blackgrass (blackgrass; [1]) | Plant response rating, Blackgrass (blackgrass; [5]) | Blackgrass plant response rating (blackgrass; [9]) | Giant foxtail plant response rating (giant foxtail; [8]) | Redroot pigweed plant response rating (pigweed; [7]) | Sugarbeets plant response rating (sugar beet; [3]) | Plant response rating, Crabgrass (crabgrass; [2]) | Plant response rating, Morningglory (morningglory; [2]) | Morningglory plant response rating (morningglory; [3]) | Rape plant response rating (rape; [7])
5: Plant response rating, Soybean (soybean; [2]) | Wild oats plant response rating (wild oat; [3]) | Rice plant response rating (rice; [12]) | Plant response rating, B. signalgrass (surinam grass; [2]) | Plant response rating, B. signalgrass (surinam grass; [5])
1: Cocklebur plant response rating (cocklebur; [3]) | Plant response rating, B. signalgrass (surinam grass; [4])

CC(C)N(C(=O)n1oc(=O)n(CC2=NOCC2)c1=O)c1ccccc1 [Compound 706]
8: Blackgrass plant response rating (blackgrass; [14]) | Plant response rating, Blackgrass (blackgrass; [5]) | Redroot pigweed plant response rating (pigweed; [14]) | Plant response rating, Redroot pigweed (pigweed; [5]) | Crabgrass plant response rating (crabgrass; [15]) | Wild oats plant response rating (wild oat; [15]) | Plant response rating, B. signalgrass (surinam grass; [5]) | B. signalgrass plant response rating (surinam grass; [15])
7: Giant foxtail plant response rating (giant foxtail; [15]) | Plant response rating, Wild oats (wild oat; [5])
5: Wheat plant response rating (wheat; [15]) | Velvetleaf plant response rating (velvetleaf; [15]) | Crabgrass plant response rating (crabgrass; [14]) | Plant response rating, Crabgrass (crabgrass; [5])
0: Corn plant response rating (corn; [14]) | Plant response rating, Corn (corn; [5]) | Corn plant response rating (corn; [15]) | Wheat plant response rating (wheat; [14]) | Velvetleaf plant response rating (velvetleaf; [14]) | S. Flatsedge plant response rating (smallflower flatsedge; [16]) | S. Flatsedge plant response rating (smallflower flatsedge; [17]) | S. Flatsedge plant response rating (smallflower flatsedge; [18]) | S. Flatsedge plant response rating (smallflower flatsedge; [19]) | Cocklebur plant response rating (cocklebur; [14]) | Plant response rating, Cocklebur (cocklebur; [5]) | Cocklebur plant response rating (cocklebur; [15]) | Plant response rating, Cocklebur (cocklebur; [13]) | Soybean plant response rating (soybean; [14]) | Plant response rating, Soybean (soybean; [5]) | Soybean plant response rating (soybean; [15]) | Bedstraw plant response rating (bedstraw; [14]) | Plant response rating, Bedstraw (bedstraw; [5]) | Bedstraw plant response rating (bedstraw; [15]) | Ducksalad plant response rating (duck salad; [16]) | Ducksalad plant response rating (duck salad; [17]) | Ducksalad plant response rating (duck salad; [18]) | Ducksalad plant response rating (duck salad; [19]) | Barnyardgrass plant response rating (bamyardgrass; [16]) | Barnyardgrass plant response rating (bamyardgrass; [17]) | Barnyardgrass plant response rating (bamyardgrass; [18]) | Barnyardgrass plant response rating (bamyardgrass; [19]) | Sugarbeets plant response rating (sugar beet; [14]) | Nutsedge plant response rating (purple nutsedge; [14]) | Nutsedge plant response rating (purple nutsedge; [15]) | Rice plant response rating (rice; [16]) | Rice plant response rating (rice; [17]) | Rice plant response rating (rice; [18]) | Rice plant response rating (rice; [19]) | Rape plant response rating (rape; [14]) | Plant response rating, Rape (rape; [5])
1: Plant response rating, Velvetleaf (velvetleaf; [5]) | Morningglory plant response rating (morningglory; [14]) | Plant response rating, Morningglory (morningglory; [5]) | Morningglory plant response rating (morningglory; [15])
6: Giant foxtail plant response rating (giant foxtail; [14]) | Plant response rating, Giant foxtail (giant foxtail; [5])
10: Blackgrass plant response rating (blackgrass; [15]) | Plant response rating, Blackgrass (blackgrass; [13]) | Redroot pigweed plant response rating (pigweed; [15]) | Plant response rating, B. signalgrass (surinam grass; [13])
2: B. signalgrass plant response rating (surinam grass; [14])
3: Rape plant response rating (rape; [15])
4: Plant response rating, Wheat (wheat; [5]) | Plant response rating, Sugarbeets (sugar beet; [5]) | Sugarbeets plant response rating (sugar beet; [15]) | Wild oats plant response rating (wild oat; [14])
